The target in series [1] is T1, SaroL-1 (Salpingoeca rosetta, UniProt F2UID9).
T1 construct: gene PTSG_08235; monomeric in solution
The experiment in a line: Isothermal titration calorimetry (MicroCal iTC200) at 25 °C in 20 mM Tris/HCl pH 7.5, 100 mM NaCl, ligand titrated into SaroL-1, one-site model with stoichiometry N fixed to 3. The format is binding. The protocol: Isothermal Titration Calorimetry (ITC)
ITC experiments were performed with MicroCaliTC200 (Malvern Panalytical). Experiments were carried out at 25 °C ± 0.1 °C. SaroL-1 and ligands samples were prepared in Buffer A. The ITC cell contained SaroL-1 in a concentration range from 0.05 mM to 0.16 mM. The syringe contained the ligand solutions in a concentration from 10 to 50 mM. 2 μL of ligands solutions were injected into the sample cell at intervals of 120 s while stirring at 750 rpm. Integrated heat effects were analysed by nonlinear regression using one site binding model (MicroCal PEAQ-ITC Analysis software). The experimental data were fitted to a theoretical curve, which gave the dissociation constant (Kd) and the enthalpy of binding (∆H).

Series [2] concerns the target T2, hemolytic activity of SaroL-1 on rabbit erythrocytes (Salpingoeca rosetta, UniProt F2UID9).
T2 sequence (F2UID9 1-329): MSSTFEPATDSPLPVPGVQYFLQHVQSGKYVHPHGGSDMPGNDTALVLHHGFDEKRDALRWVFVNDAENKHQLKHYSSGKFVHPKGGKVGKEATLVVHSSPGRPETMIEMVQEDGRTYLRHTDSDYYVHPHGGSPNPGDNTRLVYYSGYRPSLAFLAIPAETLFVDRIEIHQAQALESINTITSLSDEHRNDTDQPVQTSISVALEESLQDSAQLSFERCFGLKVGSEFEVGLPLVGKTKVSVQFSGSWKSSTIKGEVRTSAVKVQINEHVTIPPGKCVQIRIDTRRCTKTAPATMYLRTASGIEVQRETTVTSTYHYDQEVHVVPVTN
The experiment in a line: Inhibition of hemolytic activity (IHA) of SaroL-1 by carbohydrates. The format is cell-based. The settings on record: for inhibition: SaroL-1 217 nM, read-out: Mean % inhibition of hemolysis. How it is done: (§1) Both HA and IHA assays were performed in U-shaped 96-well microtiter plates. In both cases, a control negative experiment was performed with Buffer A added to erythrocyte solution (2% final concentration), and the resulting value was subtracted from all data.
(§2) IHA was performed in U-shaped 96-well microtiter plates. […] 4% rabbit erythrocytes were added to the mixture in a 1:1 ratio and incubated for 1–2 h at 37 °C. The samples were centrifuged, 2600 × g for 15 min at RT, and the absorbance of the supernatant was measured at 540 nm by a Tecan reader.

In series [3] the target is T1, SaroL-1. The series can be described thus: Inhibition of SaroL-1 (217 nM) induced hemolysis of rabbit erythrocytes after 1 h pre-incubation of lectin with sugar at RT, then 1-2 h at 37 °C, absorbance of supernatant at 540 nm. The series is classed as cell-based. As to conditions: n = 2. The protocol: Hemolytic assay (HA) and inhibition of hemolytic activity (IHA)
as §1, §2

In series [4] the test system is SaroL-1. The series can be described thus: Isothermal titration calorimetry of galactosyl-ligands with SaroL-1. The series is classed as binding, Salpingoeca rosetta. The settings on record: ITC.

Read-outs that look alike come from different tables or passages of the source.

On SaroL-1 [1], `CC(=O)N[C@H]1C(O)O[C@H](CO)[C@H](O)[C@@H]1O` (stereo partly shown) [GalNAc, N-acetylgalactosamine] yielded a Kd of 2760 µM. For the same compound, the inhibition in series [2] (sugar 0.003 mM) worked out at 3.76%; in series [2] (sugar 0.006 mM), 7.37%; in series [2] (sugar 0.0125 mM) it was 8.89%; in series [2] (sugar 0.025 mM) it was 4%; in series [2] (sugar 0.05 mM), 2.33%; in series [2] (sugar 0.1 mM), 6.61%. Also, the inhibition was 6.57% in series [2] (sugar 0.2 mM); 9.48% in series [2] (sugar 0.4 mM); 14.5% in series [2] (sugar 0.8 mM); 27.3% in series [2] (sugar 1.6 mM); 42.5% in series [2] (sugar 3.125 mM); 64% in series [2] (sugar 6.25 mM). Further, the inhibition in series [2] (sugar 12.5 mM) came out at 83.1%; in series [2] (sugar 25 mM) it was 98.8%; in series [2] (sugar 50 mM) it was 100%. For the same compound, the IC50 at SaroL-1 [3] was 4900 µM.
As for `CO[C@H]1O[C@H](CO)[C@H](O)[C@H](O)[C@H]1O` [GalαOMe, α-methyl galactoside], the Kd at SaroL-1 [1] came to 2170 µM.
For `OC[C@H]1O[C@@H](O[C@H]2[C@H](O)[C@@H](O)[C@H](O)O[C@@H]2CO)[C@H](O)[C@@H](O)[C@H]1O` [Lactose, lactose], in the series with SaroL-1 [4], the “binding to SaroL-1 (in words)” value is “very weak binding”. Moreover, in series [2] (SaroL-1 217 nM pre-incubated with carbohydrate, read-out: IC50 of inhibition of hemolysis), the IC50 is 11900 µM.
As to `OC[C@H]1O[C@H](OCC2O[C@@H](O)[C@H](O)[C@@H](O)[C@@H]2O)[C@H](O)[C@@H](O)[C@H]1O` (stereo partly shown) [melibiose], the “inhibition of hemolysis (in words)” value in series [2] (10 mM carbohydrate) is on record as “complete inhibition”. Besides, the inhibition amounted to 0.665% in series [2] (sugar 0.003 mM); 2.27% in series [2] (sugar 0.006 mM); 3.73% in series [2] (sugar 0.0125 mM); 7.43% in series [2] (sugar 0.025 mM); 7.01% in series [2] (sugar 0.05 mM); 9.7% in series [2] (sugar 0.1 mM). Further, the inhibition turned out to be 15.2% in series [2] (sugar 0.2 mM); 22.7% in series [2] (sugar 0.4 mM); 36.1% in series [2] (sugar 0.8 mM); 54.5% in series [2] (sugar 1.6 mM); 76.3% in series [2] (sugar 3.125 mM); 91.8% in series [2] (sugar 6.25 mM). The inhibition in series [2] (sugar 12.5 mM), in series [2] (sugar 25 mM) and in series [2] (sugar 50 mM) was 100% in each case.
As for `OC[C@H]1O[C@H](O[C@H]2[C@@H](O)[C@@H](CO)OC(O)[C@@H]2O)[C@H](O)[C@@H](O)[C@H]1O` (stereo partly drawn) [αGal1-3Gal, α-D-galactopyranosyl-(1-3)-D-galactose], the Kd at SaroL-1 [1] amounted to 1380 µM.
